# Measured values as given in patent publication US20230365559A1, “NOVEL AMINOPYRIDINES AND THEIR USE IN TREATING CANCER” (priority 2020, published 2023).
# pIC50: −log10 of the molar value.
# What was measured:
# UT-SCC-54C cells [1] = assay: Radiosensitisation of UT-SCC-54C HNSCC cells, regrowth (sulforhodamine B) assay, oxic (Table 16); type: cell-based, human; settings: for pIC50: Homo sapiens, read-out: IC50; for S50: compound in combination with 3 Gy of radiation, 50% inhibition of regrowth fraction, UT-SCC-54C; for S50 / radiosensitisation / differential growth inhibition of UT-SCC-54C cells: oxic; for radiosensitisation / differential growth inhibition of UT-SCC-54C cells: 0 or 3 Gy, regrowth assay
# human PI3Kα (p110α/p85α) = human PI3Kα (p110α/p85α) (Homo sapiens, UniProt P42336); assay: Inhibition of PI3Kα kinase activity, ADP-Glo Assay (Reaction Biology); type: biochemical; settings: 10 μM ATP; mean of two replicates; Table 12; read-out: Inhibition of kinase activity (as IC50) PICK
# human PI3Kα (p110α/p85α), sequence (P42336 whole entry): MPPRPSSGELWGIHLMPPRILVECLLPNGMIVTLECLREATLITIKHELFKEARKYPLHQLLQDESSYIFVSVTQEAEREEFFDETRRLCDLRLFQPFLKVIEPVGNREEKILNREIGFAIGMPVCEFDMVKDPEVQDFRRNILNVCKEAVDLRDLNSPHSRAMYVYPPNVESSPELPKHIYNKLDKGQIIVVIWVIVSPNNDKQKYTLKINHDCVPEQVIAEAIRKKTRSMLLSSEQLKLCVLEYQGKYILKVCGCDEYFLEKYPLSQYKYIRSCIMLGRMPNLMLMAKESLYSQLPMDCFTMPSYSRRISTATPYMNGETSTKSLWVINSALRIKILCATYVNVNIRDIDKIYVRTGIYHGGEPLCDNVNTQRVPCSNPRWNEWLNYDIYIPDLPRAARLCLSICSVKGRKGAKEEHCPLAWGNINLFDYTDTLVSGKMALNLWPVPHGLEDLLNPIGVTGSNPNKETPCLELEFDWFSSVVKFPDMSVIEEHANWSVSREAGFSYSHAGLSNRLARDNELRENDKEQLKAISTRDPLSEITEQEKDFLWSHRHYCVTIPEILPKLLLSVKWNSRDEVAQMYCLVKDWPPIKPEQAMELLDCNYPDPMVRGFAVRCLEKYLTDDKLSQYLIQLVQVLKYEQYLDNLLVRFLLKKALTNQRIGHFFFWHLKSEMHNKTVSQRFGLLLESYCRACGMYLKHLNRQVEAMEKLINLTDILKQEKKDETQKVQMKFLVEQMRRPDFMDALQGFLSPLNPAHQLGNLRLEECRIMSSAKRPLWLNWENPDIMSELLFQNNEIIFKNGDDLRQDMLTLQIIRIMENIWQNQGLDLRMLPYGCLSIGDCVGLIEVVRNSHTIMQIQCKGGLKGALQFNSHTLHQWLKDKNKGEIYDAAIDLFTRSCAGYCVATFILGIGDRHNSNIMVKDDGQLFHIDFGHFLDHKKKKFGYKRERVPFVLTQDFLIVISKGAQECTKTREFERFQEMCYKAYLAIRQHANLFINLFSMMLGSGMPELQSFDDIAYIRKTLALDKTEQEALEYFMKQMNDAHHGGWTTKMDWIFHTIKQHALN
# human PI3Kα (p110α/p85α), sequence (P27986 whole entry partner): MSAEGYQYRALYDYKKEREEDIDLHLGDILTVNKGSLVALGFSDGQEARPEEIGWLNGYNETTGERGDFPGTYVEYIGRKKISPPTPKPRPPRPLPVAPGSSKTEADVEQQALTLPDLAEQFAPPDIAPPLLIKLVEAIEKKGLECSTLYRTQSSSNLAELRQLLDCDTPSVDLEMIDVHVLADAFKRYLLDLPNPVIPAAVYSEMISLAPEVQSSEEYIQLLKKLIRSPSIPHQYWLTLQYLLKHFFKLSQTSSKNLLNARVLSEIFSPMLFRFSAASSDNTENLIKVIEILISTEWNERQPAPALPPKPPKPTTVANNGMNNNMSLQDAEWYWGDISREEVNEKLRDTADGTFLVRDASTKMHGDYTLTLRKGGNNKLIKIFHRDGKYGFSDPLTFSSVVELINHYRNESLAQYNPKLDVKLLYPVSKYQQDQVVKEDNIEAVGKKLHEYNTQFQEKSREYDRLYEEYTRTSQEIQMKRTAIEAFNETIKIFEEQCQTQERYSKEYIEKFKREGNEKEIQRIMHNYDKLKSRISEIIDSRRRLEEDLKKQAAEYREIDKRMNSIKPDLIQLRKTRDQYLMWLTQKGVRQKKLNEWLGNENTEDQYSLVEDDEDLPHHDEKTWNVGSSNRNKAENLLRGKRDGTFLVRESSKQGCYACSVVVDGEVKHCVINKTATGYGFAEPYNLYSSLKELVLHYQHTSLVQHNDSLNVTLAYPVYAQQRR
# human DNA-PK = human DNA-PK (Homo sapiens, UniProt P78527); assay: Inhibition of DNA-PKcs kinase activity, HotSpot assay (Reaction Biology), [γ-33P]-ATP phosphorylation of peptide substrate; type: biochemical; settings: 10 μM ATP, 10 μg/ml DNA; mean of two replicates; Table 12; read-out: Inhibition of kinase activity (as IC50) DNA-PK (converted)
# UT-SCC-54C cells [2] = assay: Radiosensitisation of UT-SCC-54C HNSCC cells, clonogenic survival, oxic and anoxic (Table 18); type: cell-based, human; settings: for Plating efficiency drug/no drug: no radiation; for sensitisation of UT-SCC-54C cells selectively under anoxia: oxic vs anoxic, clonogenic survival, FIGS. 9 and 10
Compound,pIC50 (UT-SCC-54C cells [1]),S50 (UT-SCC-54C cells [1]),pIC50 (human PI3Kα (p110α/p85α)),IC50 (human DNA-PK),radiosensitisation / differential growth inhibition of UT-SCC-54C cells (UT-SCC-54C cells [1]),further results
"Cn1c(=O)n(C2CCCC2)c2cc(Nc3ccc4ncsc4c3)ncc21 [Compound 70, 6-(Benzo[d]thiazol-6-ylamino)-1-cyclopentyl-3-methyl-1,3-dihydro-2H-imidazo[4,5-c]pyridin-2-one]",< 5.00,2.62 µM,–,–,–,–
"Cc1ccncc1Nc1cc2c(cn1)n(C)c(=O)n2C1CCCC1 [Compound 78, 1-Cyclopentyl-3-methyl-6-((4-methylpyridin-3-yl)amino)-1,3-dihydro-2H-imidazo[4,5-c]pyridin-2-one]",< 5.00,4.09 µM,–,–,–,–
"Cc1cc(OCc2ccccc2)ccc1Nc1cc2c(cn1)n(C)c(=O)n2C1CCOCC1 [Compound 124, 6-((4-(Benzyloxy)-2-methylphenyl)amino)-3-methyl-1-(tetrahydro-2H-pyran-4-yl)-1,3-dihydro-2H-imidazo[4,5-c]pyridin-2-one]",–,–,5.26,422 nM,–,–
"Cc1cc(Cl)ccc1N(C(=O)OCc1ccccc1)c1cc2c(cn1)n(C)c(=O)n2C1CCOCC1 [Compound 134, Benzyl (4-Chloro-2-methylphenyl)(3-methyl-2-oxo-1-(tetrahydro-2H-pyran-4-yl)-2,3-dihydro-1H-imidazo[4,5-c]pyridin-6-yl)carbamate]",–,–,< 5.00,> 10000 nM,–,–
"COc1ccc(N(C(=O)OCc2ccccc2)c2cc3c(cn2)n(C)c(=O)n3C2CCN(C(=O)OC(C)(C)C)CC2)c(C)c1 [Compound 154, tert-Butyl 4-(6-(((Benzyloxy)carbonyl)(4-methoxy-2-methylphenyl)amino)-3-methyl-2-oxo-2,3-dihydro-1H-imidazo[4,5-c]pyridin-1-yl)piperidine-1-carboxylate]",< 5.00,2.06 µM,–,–,–,–
"COc1ccc(-n2c(=O)n(C)c3cnc(Nc4ccc(OC)cc4C)cc32)cc1 [Compound 195, 6-((4-Methoxy-2-methylphenyl)amino)-1-(4-methoxyphenyl)-3-methyl-1,3-dihydro-2H-imidazo[4,5-c]pyridin-2-one]",–,–,–,–,–,"D1 (radiation dose for 1% surviving fraction) (UT-SCC-54C cells [2]; 20% O2, compound conc 0.33 μM): 1.53 Gy; D10 (radiation dose for 10% surviving fraction) (UT-SCC-54C cells [2]; 20% O2, compound conc 0.33 μM): 4.67 Gy; D1 (radiation dose for 1% surviving fraction) (UT-SCC-54C cells [2]; 20% O2, compound conc 1 μM): 2.75 Gy; D10 (radiation dose for 10% surviving fraction) (UT-SCC-54C cells [2]; 20% O2, compound conc 1 μM): 2.60 Gy; D1 (radiation dose for 1% surviving fraction) (UT-SCC-54C cells [2]; 20% O2, compound conc 3 μM): 3.90 Gy; D10 (radiation dose for 10% surviving fraction) (UT-SCC-54C cells [2]; 20% O2, compound conc 3 μM): 1.83 Gy; radiosensitisation, clonogenic survival endpoint (UT-SCC-54C cells [2]; UT-SCC-54C, FIG. 8 and Table 18): concentration-dependent increases in radiosensitisation"
"COc1ccc(-n2c(=O)n(C)c3cnc(Nc4ccc(Cl)cc4C)cc32)cc1 [Compound 196, 6-((4-Chloro-2-methylphenyl)amino)-1-(4-methoxyphenyl)-3-methyl-1,3-dihydro-2H-imidazo[4,5-c]pyridin-2-one]",< 5.00,0.68 µM,6.63,0.27 nM,–,–
"COc1ccc(-n2c(=O)n(C)c3cnc(Nc4ccc(S(C)(=O)=O)cc4C)cc32)cc1 [Compound 198, 1-(4-Methoxyphenyl)-3-methyl-6-((2-methyl-4-(methylsulfonyl)phenyl)amino)-1,3-dihydro-2H-imidazo[4,5-c]pyridin-2-one]",< 5.00,0.17 µM,5.74,23 nM,–,–
"COc1ccc(-n2c(=O)n(C)c3cnc(Nc4ccc(OCc5ccccc5)cc4C)cc32)cc1 [Compound 199, 6-((4-(Benzyloxy)-2-methylphenyl)amino)-1-(4-methoxyphenyl)-3-methyl-1,3-dihydro-2H-imidazo[4,5-c]pyridin-2-one]",–,–,–,55 nM,–,–
"Cc1cc(Cl)ccc1Nc1cc2c(cn1)n(C)c(=O)n2-c1ccc(C(C)(C)C#N)cc1 [Compound 212, 2-(4-(6-((4-Chloro-2-methylphenyl)amino)-3-methyl-2-oxo-2,3-dihydro-1H-imidazo[4,5-c]pyridin-1-yl)phenyl)-2-methylpropanenitrile]",< 5.00,0.51 µM,6.10,< 0.51 nM,–,–
"Cn1c(=O)n(-c2ccc(C(C)(C)C#N)cc2)c2cc(Nc3ccc4nccnc4c3)ncc21 [Compound 214, 2-Methyl-2-(4-(3-methyl-2-oxo-6-(quinoxalin-6-ylamino)-2,3-dihydro-1H-imidazo[4,5-c]pyridin-1-yl)phenyl)propanenitrile]",–,–,–,43 nM,–,–
"Cc1cc(OC(C)c2cnc([N+](=O)[O-])n2C)ccc1Nc1cc2c(cn1)n(C)c(=O)n2C1CCOCC1 (stereo not drawn) [Compound 238, 3-Methyl-6-((2-methyl-4-(1-(1-methyl-2-nitro-1H-imidazol-5-yl)ethoxy)phenyl)amino)-1-(tetrahydro-2H-pyran-4-yl)-1,3-dihydro-2H-imidazo[4,5-c]pyridin-2-one]",< 5.00,>10 µM,–,–,did not display any differential growth inhibition,"D1 (radiation dose for 1% surviving fraction) (UT-SCC-54C cells [2]; 0% O2, compound conc 1 μM): 15.0 Gy; D10 (radiation dose for 10% surviving fraction) (UT-SCC-54C cells [2]; 0% O2, compound conc 1 μM): 8.46 Gy; SER1 (sensitiser enhancement ratio at 1% surviving fraction) (UT-SCC-54C cells [2]; 0% O2, compound conc 1 μM): 1.44; SER10 (sensitiser enhancement ratio at 10% surviving fraction) (UT-SCC-54C cells [2]; 0% O2, compound conc 1 μM): 1.65; Plating efficiency drug/no drug (UT-SCC-54C cells [2]; 0% O2, compound conc 1 μM): 1.02; sensitisation of UT-SCC-54C cells selectively under anoxia (UT-SCC-54C cells [2]): provide sensitisation of UT-SCC-54C cells selectively under anoxia"
"Cc1cc(OCc2ncc([N+](=O)[O-])n2C)ccc1Nc1cc2c(cn1)n(C)c(=O)n2C1CCOCC1 [Compound 240, 3-Methyl-6-((2-methyl-4-((1-methyl-5-nitro-1H-imidazol-2-yl)methoxy)phenyl)amino)-1-(tetrahydro-2H-pyran-4-yl)-1,3-dihydro-2H-imidazo[4,5-c]pyridin-2-one]",< 5.00,>10 µM,–,–,did not display any differential growth inhibition,–
"COc1ccc(-n2c(=O)n(C)c3cnc(Nc4ccc(OCc5cnc([N+](=O)[O-])n5C)cc4C)cc32)cc1 [Compound 246, 1-(4-Methoxyphenyl)-3-methyl-6-((2-methyl-4-((1-methyl-2-nitro-1H-imidazol-5-yl)methoxy)phenyl)amino)-1,3-dihydro-2H-imidazo[4,5-c]pyridin-2-one]",< 5.00,6.08 µM,5.89,116 nM,did not display any differential growth inhibition,–
"COc1ccc(N(C(=O)OC(C)c2cnc([N+](=O)[O-])n2C)c2cc3c(cn2)n(C)c(=O)n3C2CCOCC2)c(C)c1 (stereo not drawn) [Compound 250, 1-(1-Methyl-2-nitro-1H-imidazol-5-yl)ethyl (4-methoxy-2-methylphenyl)(3-methyl-2-oxo-1-(tetrahydro-2H-pyran-4-yl)-2,3-dihydro-1H-imidazo[4,5-c]pyridin-6-yl)carbamate]",< 5.00,>10 µM,–,–,did not display any differential growth inhibition,"D1 (radiation dose for 1% surviving fraction) (UT-SCC-54C cells [2]; 0% O2, compound conc 1 μM): 10.83 Gy; D10 (radiation dose for 10% surviving fraction) (UT-SCC-54C cells [2]; 0% O2, compound conc 1 μM): 5.78 Gy; SER1 (sensitiser enhancement ratio at 1% surviving fraction) (UT-SCC-54C cells [2]; 0% O2, compound conc 1 μM): 1.87; SER10 (sensitiser enhancement ratio at 10% surviving fraction) (UT-SCC-54C cells [2]; 0% O2, compound conc 1 μM): 2.09; Plating efficiency drug/no drug (UT-SCC-54C cells [2]; 0% O2, compound conc 1 μM): 0.98; sensitisation of UT-SCC-54C cells selectively under anoxia (UT-SCC-54C cells [2]): provide sensitisation of UT-SCC-54C cells selectively under anoxia"
"COc1ccc(-n2c(=O)n(C)c3cnc(N(C(=O)OCc4cnc([N+](=O)[O-])n4C)c4ccc(OC)cc4C)cc32)cc1 [Compound 259, (1-Methyl-2-nitro-1H-imidazol-5-yl)methyl (4-methoxy-2-methylphenyl)(1-(4-methoxyphenyl)-3-methyl-2-oxo-2,3-dihydro-1H-imidazo[4,5-c]pyridin-6-yl)carbamate]",< 5.00,>10 µM,–,–,did not display any differential growth inhibition,–
